{"source": "patent US11851676B2", "about": "“Human neural precursor cells with inducible STIM1 knockdown” (NATIONAL CENTRE FOR BIOLOGICAL SCIENCES, priority 2018, dated 2023)", "key": {"SOCE in NPCs": {"tested_on": "SOCE in NPCs", "settings": "embryonic and adult mouse NSCs/NPCs; cited from earlier work"}, "SOCE in human NPCs": {"tested_on": "SOCE in human NPCs", "test": "Thapsigargin-induced store release and SOCE Ca2+ imaging in human NPCs", "type": "cell-based", "settings": "thapsigargin 10 μM store depletion, re-addition of 2 mM Ca2+; pharmacological inhibitors vs DMSO", "description": "(A, B) Ca^2+-responses during ER-store release and SOCE induced by Thapsigargin (TG, 10 μM) measured using the ratiometric Ca^2+-indicator indo-1-AM in wild-type (WT) hNPCs (A) or hNPCs treated with pharmacological inhibitors of SOCE, BTP-2 and 2-APB at the indicated concentrations or DMSO as a solvent control (B). Each trace represents the mean+SEM for 25-100 cells. Ionomycin (Iono, 10 μM) was added at the end of each imaging to determine the peak F405/485 ratio obtained after saturation of the Ca′-indicator with Ca^2+ (C) Box plots quantifying the peak F405/485 values for store-release and SOCE in the indicated treatment conditions.\n(Top) A representative Western blot showing levels of STIM1 protein in hNPCs transduced with an NTC (non-targeting control) or an sh-RNA targeting STIM1 (STIM1 KD). Actin serves as the loading control. […] (E) Ca^2+-responses during store-release and SOCE in hNPCs transduced with NTC and STIM1 KD. (F) Box plots quantifying the peak F405/485 values for store-release and SOCE in the indicated genotypes."}, "SVZ cells [1]": {"tested_on": "SVZ cells", "settings": "pharmacological blockade of SOC, in vitro; cited from earlier work"}, "SVZ cells [2]": {"tested_on": "SVZ cells", "settings": "injection in brain lateral ventricle; cited from earlier work"}}, "data": [{"smiles": "NCCOB(c1ccccc1)c1ccccc1", "note": "[2-APB, 2-aminoethoxy-diphenyl borate]", "values": [{"measurement": "effect on SOCE in mouse NPCs", "setting": "SOCE in NPCs", "result": "blocked"}, {"measurement": "effect on SOCE in human NPCs", "setting": "SOCE in human NPCs", "result": "significantly inhibited SOCE"}]}, {"smiles": "Cc1nnsc1C(=O)Nc1ccc(-n2nc(C(F)(F)F)cc2C(F)(F)F)cc1", "note": "[BTP-2]", "values": [{"measurement": "effect on proliferation of SVZ cells", "setting": "SVZ cells [1]", "result": "decreases proliferation"}, {"measurement": "effect on SOCE in mouse NPCs", "setting": "SOCE in NPCs", "result": "blocked"}, {"measurement": "effect on SOCE in human NPCs", "setting": "SOCE in human NPCs", "result": "significantly inhibited SOCE"}]}, {"smiles": "[La+3]", "note": "[La^3+]", "values": [{"measurement": "effect on SOCE in mouse NPCs", "setting": "SOCE in NPCs", "result": "blocked"}]}, {"smiles": "COc1ccc(CCCOC(Cn2ccnc2)c2ccc(OC)cc2)cc1", "note": "(centres unmarked) [SKF-96365]", "values": [{"measurement": "effect on proliferation of SVZ cells", "setting": "SVZ cells [1]", "result": "decreases proliferation"}, {"measurement": "effect on SVZ cell proliferation in vivo", "setting": "SVZ cells [2]", "result": "diminishes SVZ cell proliferation"}]}]}
